# pIC50: −log10 of the molar value. Values joined by “and” are separate entries in the source; they are usually repeats but may differ in a detail not shown here. Equal entries are not always repeated.
# Key:
# [1] = system: phosphodiesterase enzyme of hornworm nerve cord; assay: PDE inhibitory activity, hornworm nerve tissue; type: biochemical, tobacco hornworm (Manducca sexta); conditions: FIG. 8
# Text: (§1) The ability of any compound (A) to inhibit phosphodiesterase (PDE) activity in broken cell preparations of firefly lantern or in pest tissues can be determined either (1) by measuring the decrease in rate of hydrolysis of an added amount of cyclic AMP by PDE (see Methods Section of Nathanson et al., Mol. Pharmacol. 12:390-398 (1975)), or (2) by measuring the rate of accumulation of one of the breakdown products of cyclic AMP, such as 5'-AMP or adenosine (see method of Filburn et al., Anal. Biochem. 52:505-516 (1973)). Both of these are herein incorporated by reference.
# (§2) In this assay (modified slightly from Filburn and Karn (Analyt. Biochem. 52: 505-516 (1973)), the rate of hydrolysis of labeled cyclic AMP to 5'-AMP by PDE is measured by converting the breakdown product (5'-AMP) to adenosine, which can be separated and measured by alumina chromatography. Specifically, tissue from either the firefly lantern or pest is homogenized (10-20 mg/ml) in 6 mM Tris-maleate buffer, pH 7.4. The hydrolysis reaction is run in test tubes containing (in 100 microliters): 80 mM Tris maleate, pH 7.4; 6 mM MgSO4; 10 pmoles tritiated cyclic AMP (2×10^4 to 2×10^5 cpm, depending upon the activity of the enzyme); 20 microliters of tissue homogenate; and various concentrations of the compound to be tested. In those cases in which the compound is insoluble in aqueous solution at pH 7.4, pH can be varied between pH 6.5 and 9.0 for optimization of solubility. In addition, the test compound can be initially solubilized in either 100% methanol or DMSO and diluted to a final concentration of 10% methanol or DMSO in the assay (in which case solvent controls are run in parallel).
# The reaction is started by the addition of homogenate, run for 4 min at 37° C., and terminated by boiling for 90 sec. […] The void volume is discarded and the column is then eluted with 2 ml of 0.1N ammonium acetate, pH 4.0, the eluent collected and counted by liquid scintillation spectrometry. […]
# [2] = system: tobacco hornworms (Manducca sexta); assay: In vivo leaf test (feeding on sprayed tomato leaves); conditions: for relative antifeeding potency: dose sprayed on tomato leaves; for antifeeding activity of the compound by itself: FIGS. 10, 13, 17, Table 8; for activity as synergist of DDCDM: FIGS. 14, 15, 16, 8-phenyl-theophylline 0.1% with 0.1% DDCDM compared with 0.1% IBMX; for effect of adding IBMX on antifeeding / pesticidal activity of the compound: IBMX 0.1%, FIGS. 9, 10, 17, Tables 4, 7, 8, FIG. 9 at 72 hours; for state of the leaf 72 hours after treatment: 0.1% of each compound, FIG. 11
# [3] = system: adenylate cyclase, nerve cord of tobacco hornworm larvae; assay: Direct activation of adenylate cyclase, broken cell preparations of hornworm nerve cord; conditions: FIG. 5
# [4] = system: adenylate cyclase in firefly lantern; assay: Direct activation of adenylate cyclase in firefly lantern; type: biochemical, firefly (Photinus pyralis); conditions: FIG. 4
# Protocol: The second type of pest controlling compounds (B2) useable in the present compositions are direct stimulators of the pest enzyme adenylate cyclase. These compounds bypass the receptor, and interact with one or another of the associated catalytic or regulatory subunits of adenylate cyclase, thereby stimulating the formation of cyclic AMP. Suitable compounds can be determined from assay of pest adenylate cyclase as described above.
# Adenylate cyclase activation by test compounds was measured in test tubes containing (in 0.3 ml) 80 mM Tris-maleate, pH 7.4; 10 mM theophylline; 8 mM MgCl2; 0.1 mM GTP; 0.5 mM ethylene glycol bis (beta-aminoethyl ether)-N,N,N'N'-tetraacetic acid; 2 mM ATP; 0.06 ml of P2 fraction; and the various compounds to be tested. Prior experiments had determined that, under these conditions, octopamine-sensitive adenylate cyclase activity is optimized. Test compounds were initially solubilized (prior to aqueous dilution) in water or (if soluble) in 50% (v/v) methanol. If insoluble in 50% methanol, compounds may be dissolved initially in 100% methanol, or 100% dimethylsulfoxide, or 100% polyethylene glycol. […] Cyclic AMP in the supernatant was measured by protein-binding assay, according to the method of Brown et al., Adv. […] Protein concentration was determined by the method of Lowry et al., Journal of Biological Chemistry 193:265-275 (1951). […]
# [5] = system: adenylate cyclase in nerve cord of tobacco hornworm; assay: Octopamine agonist activity, adenylate cyclase in broken cell preparations of insect nerve cord; type: biochemical, tobacco hornworm (Manducca sexta); conditions: FIG. 3
# Protocol: In addition to the above method employing the firefly light organ, octopamine-sensitive adenylate cyclase can also be measured in tissue preparations from the nerve cord of any desired particular insect pest, using a modification of the method appearing in Nathanson et al. (Science 180:308-310 (1973)) herein incorporated by reference. […]. […] Otherwise, the procedure is identical to that described above.
# […]. The tissue is homogenized (usually 15 mg/ml) as above in 6 mM Tris maleate, pH 7.4. […]. This is done to cancel out the effects of dopamine and serotonin receptors which are usually present in nerve cord. It assures that the compound (B) tested is affecting only octopamine receptors (known to be present in all insect nerve cords).
# [6] = system: octopamine-sensitive adenylate cyclase (firefly lantern octopamine receptor); assay: Octopamine-sensitive adenylate cyclase activation, firefly light organ broken cell preparation; type: biochemical, firefly (Photinus pyralis)
# Manducca eggs = assay: Ovacidal test (eggs dipped in drug solutions); type: in vivo, Manducca sexta; conditions: IBMX 0.1 g/100 ml alone (C* = no agonist); control without IBMX 80
# Protocol: In some cases, test agents were tested for ovacidal activity by dipping groups of 10-50 Manducca eggs in drug solutions for 60 seconds and then determining the percentage of eggs which produced viable larvae. A compound or synergist with active ovacidal activity was one which decreased the percentage of eggs hatched, relative to control.
# [7] = system: Firefly phosphodiesterase enzyme; assay: PDE inhibitory activity, firefly lantern; type: biochemical, firefly (Photinus pyralis); conditions: for phosphodiesterase inhibition: FIG. 6
# Text: as §1
# Generally, any compound capable of maximally inhibiting PDE activity by at least 50% (Vmax -inhibition) and preferably by at least 80% is preferred. Also, in terms of the concentration of the compound required for such inhibition, this can be quantitated by determining the IC 50-inhibition, i.e., the concentration of the compound required to cause 50% of the maximal inhibitioncaused by the compound at any concentration.
# as §2
# The reaction is started by the addition of homogenate, run for 4 min at 37° C., and terminated by boiling for 90 sec. The 5'AMP formed is then converted to adenosine by the addition of 20 microliters of an aqueous solution of 0.5 Units/ml of 5'-nucleotidase (Sigma, Grade IV), vortexed, and incubated for 30 minutes at 37° C. The second reaction is stopped by addition of 0.4 ml of 0.1N ammonium acetate, pH 4.0. The entire sample is then applied to a 0.5×8 cm column containing neutral alumina prewashed with 20 ml of 0.1N ammonium acetate, pH 4.0. The void volume is discarded and the column is then eluted with 2 ml of 0.1N ammonium acetate, pH 4.0, the eluent collected and counted by liquid scintillation spectrometry. Activity is cpms above that due to a blank which was initially incubated for 0 seconds in the first reaction.
# [8] = system: cyclic AMP content of intact nerve cords of tobacco hornworms; assay: Cyclic AMP content of intact nerve cords incubated in vitro; type: cell-based, tobacco hornworm (Manducca sexta); conditions: 100 micromoles/liter of IBMX, 5 minutes in vitro; without PDE inhibitor 8.9±1.6
# [9] = agonist 10^-1 gm/100 ml + PDE Inhibitor IBMX 0.1 g/100 ml
# [10] = agonist 10^-1 gm/100 ml, No PDE Inhibitor
# [11] = agonist 10^-2 gm/100 ml + PDE Inhibitor IBMX 0.1 g/100 ml
# [12] = agonist 10^-2 gm/100 ml, No PDE Inhibitor
# [13] = agonist 10^-3 gm/100 ml + PDE Inhibitor IBMX 0.1 g/100 ml
# [14] = agonist 10^-3 gm/100 ml, No PDE Inhibitor
structure (smiles),measurement,setting,value
Cn1c(=O)c2[nH]c(-c3ccccc3)nc2n(C)c1=O [8-phenyl-theophylline],inhibition of phosphodiesterase activity (maximal),[1],≤ 30%
same,"inhibition of feeding (maximal, even at a high dose)",[2]; FIG. 13,≤ 35%
same,relative antifeeding potency,[2]; FIG. 13,shows the least activity
same,antifeeding activity of the compound by itself,[2],little antifeeding activity
same,activity as synergist of DDCDM,[2],much less activity as a synergist
C=C[C@@]1(C)CC(=O)[C@]2(O)[C@@]3(C)[C@@H](O)CCC(C)(C)[C@@H]3[C@H](O)[C@H](OC(C)=O)[C@@]2(C)O1 [forskolin],Ka ratio,[3],0.20
same,Vmax,[3],about 100%
same,antifeeding activity of the compound by itself,[2],has antifeeding activity
same,effect of adding IBMX on antifeeding / pesticidal activity of the compound,[2],enhanced
same,Ka ratio,[4],0.22
same,Vmax,[4],100%
NCC(O)c1ccc(O)cc1 (racemic) [(±)-p-octopamine],effect of adding IBMX on antifeeding / pesticidal activity of the compound,[2],greatly increases the percent leaf remaining
same,activation of adenylate cyclase in nerve cord,[5],potent activators of adenylate cyclase
same,Vmax (% OCT),"[6]; Table 1, phenylethylamines, maximal activation as % of that by (±)-p-octopamine, N.A. = No Activity",81 ± 1 % OCT and 100 ± 1 % OCT
"Cc1cc(Cl)ccc1N=CN [DDCDM, di-demethylchlordimeform]",state of the leaf 72 hours after treatment,[2],eaten substantial amounts of the leaf
same,% Leaf Remaining (increase over control),[2]; DDCDM 0.1 g/100 ml alone,0%
same,% Leaf Remaining,[2]; agonist 1 gm/100 ml + PDE Inhibitor IBMX 0.1 g/100 ml,100%
same,% Leaf Remaining,"[2]; agonist 1 gm/100 ml, No PDE Inhibitor",100%
same,% Leaf Remaining,[2]; [9],98%
same,% Leaf Remaining,[2]; [10],30%
same,% Leaf Remaining,[2]; [11],85%
same,% Leaf Remaining,[2]; [12],7%
same,% Leaf Remaining,[2]; [13],20%
same,% Leaf Remaining,[2]; [14],5%
same,activation of adenylate cyclase in nerve cord,[5],potent activators of adenylate cyclase
same,Ka ratio,"[6]; FIG. 1, formamidines",4
same,Vmax,"[6]; FIG. 1, formamidines, % of octopamine",68%
Cc1cc(Cl)ccc1N=C1NCCN1 [NC 7],effect of adding IBMX on antifeeding / pesticidal activity of the compound,[2],substantial increases in the potency
same,% Leaf Remaining,[2]; agonist 0.3 (3 × 10^-1) gm/100 ml + PDE Inhibitor IBMX 0.1 g/100 ml,100%
same,% Leaf Remaining,"[2]; agonist 0.3 (3 × 10^-1) gm/100 ml, No PDE Inhibitor",80%
same,% Leaf Remaining,[2]; [9],95%
same,% Leaf Remaining,[2]; [10],55%
same,% Leaf Remaining,[2]; [11],85%
same,% Leaf Remaining,[2]; [12],30%
same,% Leaf Remaining,[2]; [13],48%
same,% Leaf Remaining,[2]; [14],23%
same,activation of adenylate cyclase in nerve cord,[5],potent activators of adenylate cyclase
same,Ka^oct /Ka^B ratio,"[6]; Table 2, clonidines, N.A. = no activity",9.8
"CC(C)Cn1c(=O)n(C)c(=O)c2[nH]cnc21 [IBMX, isobutylmethylxanthine]",pattern of PDE inhibition,[1],quite similar to that in the firefly light organ
same,% Living Larvae,Manducca eggs,90%
same,state of the leaf 72 hours after treatment,[2],almost entirely consumed
same,IBMX concentrations at which IBMX itself acted to inhibit feeding,[2]; FIG. 12,0.4-5 gm/b 100 ml
same,IBMX concentrations with no effect by itself and no increase of DDCDM activity,"[2]; FIG. 12, DDCDM 0.1%",less than 0.001 gm/100 ml
same,relative antifeeding potency,[2]; FIG. 13,more potent than theophylline
same,antifeeding activity of the compound by itself,[2],very small inhibitory effect by itself
same,phosphodiesterase inhibition,[7],more potent inhibitor of the enzyme
same,cyclic AMP content of hornworm nerve cord,[8],21.4 ± 0.8 pmol/mg
COc1ccc(C[C@H](N)C(=O)N[C@H]2[C@@H](O)[C@H](n3cnc4c(N(C)C)ncnc43)O[C@@H]2CO)cc1 [puromycin],activity as synergist of DDCDM,[2],able to synergize the pesticidal activity of DDCDM
same,Vmax (maximal inhibition of PDE activity),[7]; FIG. 7,greater than 70%
same,pIC50,"[7]; FIG. 7, read-out: IC50 -inhibition",> 2.70
Cn1c(=O)c2c(ncn2C)n(C)c1=O [caffeine],activity as synergist of DDCDM,[2],much more powerful in inhibiting leaf feeding than caffeine alone or DDCDM alone
same,phosphodiesterase inhibition,[7],active as phosphodiesterase inhibitors

# From patent US4902690A, “Pest controlling compositions” (The General Hospital Corporation, priority 1988, dated 1990)
